Inhibition and Activity data for 34 compounds are collected here from ChEMBL document CHEMBL1157650, “Synthesis and bradykinin inhibitory activity of novel non-peptide compounds, and evaluation of in vivo analgesic activity” (2010).

SMILES strings stand for the structures. The source made the active and inactive calls. The calls are words filed in the database; no cut-off is given here.

One assay has as its system Ileum. The assay can be described thus: Inhibition of bradykinin-induced Hartley guinea pig ileum contraction at 1 uM relative to control. It counts as functional. The note with it: Cavia porcellus.
One may read the inhibition as the relative decrease from the control value, in per cent. Read a low inhibition as a response near the control. The compound `COc1cc(CNC(=O)CCC(=O)N2CCCN(C(c3ccccc3)c3ccc(Cl)cc3)CC2)cc(OC)c1OC` (centres undefined) came in with an inhibition at 1 µM of 72.6%. On the same count and under the same terms, to `COc1cc(CNC(=O)CC(C)CC(=O)N2CCCN(C(c3ccccc3)c3ccc(Cl)cc3)CC2)cc(OC)c1OC` (centres undefined) belongs 69.7%; to `COc1ccc(CNC(=O)/C=C\C(=O)N2CCN(C(c3ccc(F)cc3)c3ccc(F)cc3)CC2)cc1`, 79.6%; to `COc1ccc(CNC(=O)/C=C\C(=O)N2CCN(C(c3ccccc3)c3ccc(Cl)cc3)CC2)cc1` (centres undefined), 74.1%. Same read-out and setting: for `COc1cc(CNC(=O)CC(C)(C)CC(=O)N2CCN(C(c3ccccc3)c3ccc(Cl)cc3)CC2)cc(OC)c1OC` (centres undefined) the value was 49.1%; for `COc1ccc(CNC(=O)CCC(=O)N2CCCN(C(c3ccccc3)c3ccc(Cl)cc3)CC2)cc1` (centres undefined), 80.9%; for `Cc1ccc(CNC(=O)/C=C\C(=O)N2CCCN(C(c3ccccc3)c3ccc(Cl)cc3)CC2)cc1` (centres undefined), 79.4%. Turning to `O=C(/C=C\C(=O)N1CCCN(C(c2ccccc2)c2ccc(Cl)cc2)CC1)NC1CCCCC1` (centres undefined), the inhibition at 1 µM is 66%. The same measure, in the same setting: to `O=C(CCC(=O)N1CCCN(C(c2ccccc2)c2ccc(Cl)cc2)CC1)NC1CCCCC1` (centres undefined) belongs 71.7%; to `COc1ccc(CNC(=O)CC(C)(C)CC(=O)N2CCN(C(c3ccccc3)c3ccc(Cl)cc3)CC2)cc1` (centres undefined), 31.6%; to `COc1cc(CNC(=O)CC(C)CC(=O)N2CCN(C(c3ccccc3)c3ccc(Cl)cc3)CC2)cc(OC)c1OC` (centres undefined), 53.1%. On the same count and under the same terms, for `COc1cc(CNC(=O)CCC(=O)N2CCN(C(c3ccccc3)c3ccc(Cl)cc3)CC2)cc(OC)c1OC` (centres undefined) the value was 65.2%; for `Cc1ccc(CNC(=O)/C=C\C(=O)N2CCN(C(c3ccc(F)cc3)c3ccc(F)cc3)CC2)cc1`, 84.5%; for `Cc1ccc(CNC(=O)CC(C)(C)CC(=O)N2CCN(C(c3ccccc3)c3ccc(Cl)cc3)CC2)cc1` (centres undefined), 32.9%. Still for that read-out and setting: to `CC(C)(CC(=O)NC1CCCCC1)CC(=O)N1CCN(C(c2ccccc2)c2ccc(Cl)cc2)CC1` (centres undefined) belongs 28%; to `Cc1ccc(CNC(=O)CCC(=O)N2CCCN(C(c3ccccc3)c3ccc(Cl)cc3)CC2)cc1` (centres undefined), 67.7%; to `CC(CCc1ccccc1)NC(=O)/C=C\C(=O)N1CCCN(C(c2ccccc2)c2ccc(Cl)cc2)CC1` (centres undefined), 79.7%. In the case of `N=C(N)NCCC[C@@H](N)C(=O)N[C@@H](CCCNC(=N)N)C(=O)N1CCC[C@H]1C(=O)N1C[C@H](O)C[C@H]1C(=O)NCC(=O)N[C@@H](Cc1cccs1)C(=O)N[C@@H](CO)C(=O)N1Cc2ccccc2C[C@@H]1C(=O)N1[C@H](C(=O)N[C@@H](CCCNC(=N)N)C(=O)O)C[C@@H]2CCCC[C@@H]21` [ICATIBANT], at 1 µM the inhibition was 100%.

For `O=C(CCC(=O)N1CCN(C(c2ccccc2)c2ccc(Cl)cc2)CC1)NC1CCCCC1` (centres undefined), at 1 µM the inhibition was 79%. `CC(CCc1ccccc1)NC(=O)/C=C\C(=O)N1CCN(C(c2ccc(F)cc2)c2ccc(F)cc2)CC1` (centres undefined) registered an inhibition at 1 µM of 86.6%.

`Cc1ccc(CNC(=O)CC(C)CC(=O)N2CCN(C(c3ccccc3)c3ccc(Cl)cc3)CC2)cc1` (centres undefined) registered an inhibition at 1 µM of 64.8%. Compound `CC(CCc1ccccc1)NC(=O)/C=C\C(=O)N1CCN(C(c2ccccc2)c2ccccc2)CC1` (centres undefined) returned an inhibition at 1 µM of 77.5%. In turn, `CC(CC(=O)N(C)C)CC(=O)N1CCN(C(c2ccccc2)c2ccc(Cl)cc2)CC1` (centres undefined) showed an inhibition at 1 µM of 36%. On the same count and under the same terms, for `COc1ccc(CNC(=O)CC(C)CC(=O)N2CCCN(C(c3ccccc3)c3ccc(Cl)cc3)CC2)cc1` (centres undefined) the value was 78.3%; for `O=C(/C=C\C(=O)N1CCN(C(c2ccc(F)cc2)c2ccc(F)cc2)CC1)NC1CCCCC1`, 65.4%.

Consider `Cc1ccc(CNC(=O)CCC(=O)N2CCN(C(c3ccccc3)c3ccc(Cl)cc3)CC2)cc1` (centres undefined), for which the inhibition at 1 µM worked out at 67.9%. Still for that read-out and setting: for `Cc1ccc(CNC(=O)CC(C)CC(=O)N2CCCN(C(c3ccccc3)c3ccc(Cl)cc3)CC2)cc1` (centres undefined) the value was 81.3%; for `O=C(/C=C\C(=O)N1CCN(C(c2ccccc2)c2ccc(Cl)cc2)CC1)NC1CCCCC1` (centres undefined), 57.4%. The same measure, in the same setting: for `COc1ccc(CNC(=O)CCC(=O)N2CCN(C(c3ccccc3)c3ccc(Cl)cc3)CC2)cc1` (centres undefined) the value was 57.2%; for `CC(CC(=O)NC1CCCCC1)CC(=O)N1CCCN(C(c2ccccc2)c2ccc(Cl)cc2)CC1` (centres undefined), 80.3%; for `COc1ccc(CNC(=O)CC(C)CC(=O)N2CCN(C(c3ccccc3)c3ccc(Cl)cc3)CC2)cc1` (centres undefined), 64.9%. Take `CC(CC(=O)NC1CCCCC1)CC(=O)N1CCN(C(c2ccccc2)c2ccc(Cl)cc2)CC1` (centres undefined): the inhibition at 1 µM is 60.8%. Still for that read-out and setting: for `Cc1ccc(CNC(=O)/C=C\C(=O)N2CCN(C(c3ccccc3)c3ccc(Cl)cc3)CC2)cc1` (centres undefined) the value was 78.5%; for `COc1ccc(CNC(=O)/C=C\C(=O)N2CCCN(C(c3ccccc3)c3ccc(Cl)cc3)CC2)cc1` (centres undefined), 75%.

The next assay concerns Rattus norvegicus. The assay can be described thus: Analgesic activity in S1/S2 spinal nerve ligated rat model of neuropathic pain assessed as suppression of mechanical stimuli-induced allodynia at 60 mg/kg, ip. Type of assay: functional, organism-based. Details: dose 60 mg/kg.
Details: not given
Take `CC(CCc1ccccc1)NC(=O)/C=C\C(=O)N1CCN(C(c2ccc(F)cc2)c2ccc(F)cc2)CC1` (centres undefined): the result was inactive.

Another assay has as its system Rattus norvegicus. The assay can be described thus: Antinociceptive activity against formalin-induced pain in rat assessed as time spent in licking, shaking or biting paw in early phase at 60 ug, sc (Rvb=47.05 +/- 8.53 sec). It counts as functional.
Details: not given
As to `CC(CCc1ccccc1)NC(=O)/C=C\C(=O)N1CCN(C(c2ccc(F)cc2)c2ccc(F)cc2)CC1` (centres undefined), the Activity was found to be 14.82 s.

In the next assay the test system is Rattus norvegicus. The assay can be described thus: Analgesic activity in S1/S2 spinal nerve ligated rat model of neuropathic pain assessed as suppression of warm water-induced allodynia at 60 mg/kg, ip. It counts as functional, organism-based. Details: dose 60 mg/kg.
Details: not given
Take `CC(CCc1ccccc1)NC(=O)/C=C\C(=O)N1CCN(C(c2ccc(F)cc2)c2ccc(F)cc2)CC1` (centres undefined): the outcome was Active.

A further assay deals with Rattus norvegicus. The assay can be described thus: Analgesic activity in S1/S2 spinal nerve ligated rat model of neuropathic pain assessed as suppression of cold water-induced allodynia at 60 mg/kg, ip. Type of assay: functional, organism-based. Details: dose 60 mg/kg.
Details: not given
For `CC(CCc1ccccc1)NC(=O)/C=C\C(=O)N1CCN(C(c2ccc(F)cc2)c2ccc(F)cc2)CC1` (centres undefined), the outcome was Active.

The subject of another assay is Rattus norvegicus. The assay can be described thus: Antinociceptive activity against formalin-induced pain in rat assessed as time spent in licking, shaking or biting paw in late phase at 60 ug, sc (Rvb=334.21 +/- 51.10 sec).
Details: not given
It counts as functional.
With `CC(CCc1ccccc1)NC(=O)/C=C\C(=O)N1CCN(C(c2ccc(F)cc2)c2ccc(F)cc2)CC1` (centres undefined), the Activity was 129.31 s.
